# Values of other authors, collected in the CATMoS acute toxicity set (Mansouri et al. 2021).
# Values joined by “and” are separate entries in the source; they are usually repeats but may differ in a detail not shown here. Equal entries are not always repeated.
# Experiment: rat acute oral toxicity
# Conditions: in vivo
row,SMILES,LD50
1,CS(=O)(=O)OCCN(CCOS(C)(=O)=O)S(C)(=O)=O,300 mg/kg
2,Cc1cc(C2(c3ccc(O)c(C)c3)C(=O)Nc3ccccc32)ccc1O,520 mg/kg
3,CCCN(CCC)CCCCCCCCNC(=O)Oc1ccc2c(c1)[C@]1(C)CCN(C)[C@@H]1N2C,18.3 mg/kg
4,CN(C)N=Nc1ccc(Br)cc1,423 mg/kg
5,CCCCN(N=O)C(N)=O,400 mg/kg
6,CCCCc1c(C)nc2ccccn2c1=O,1100 mg/kg
7,CN(C)C(=O)n1c(Br)nc(Br)c1Br,50 mg/kg
8,CCNC(=O)C(SP(=S)(OC)OC)C(=O)NCC,1000 mg/kg
9,OC(CCl)CCl,110 mg/kg
10,CN1CCOC(c2ccccc2)c2ccccc2C1 (stereo unspecified),80 mg/kg
11,CC1CS1 (stereo unspecified),254 mg/kg
12,c1ccc2c(OCCN3CCCC3)ccnc2c1,280 mg/kg
13,CCN(CC)CCOC(=O)CC(O)(c1ccccc1)c1ccccc1,2310 mg/kg
14,CCCNC(=O)OCC(O)C1COc2ccccc2O1 (stereo unspecified),1500 mg/kg
15,O=C(O)C(F)(F)C(F)(F)C(F)(F)C(F)F,1760 mg/kg
16,O=C1CCc2ccccc2O1,1460 mg/kg
17,"CC(Cc1ccc(C(C)(C)C)cc1)CN1C[C@@H](C)O[C@@H](C)C1 (single isomer, unassigned)",3540 mg/kg
18,OC(CNCCNCC(O)COc1ccccc1)COc1ccccc1 (stereo unspecified),2920 mg/kg
19,CC(C)CCOC(=O)c1ccccc1O,3300 mg/kg
20,N#CC(=Cc1ccc(Cl)cc1Cl)C(=O)O,50 mg/kg
21,O=C(CCNNC(=O)c1ccncc1)NCc1ccccc1,1700 mg/kg
22,C=Cc1cccc(Cl)c1,5200 mg/kg
23,CCCc1ccc2c(c1)OCO2,2260 mg/kg
24,CC(C)CNC(=O)OCC(O)C1COc2ccccc2O1 (stereo unspecified),1500 mg/kg
25,N#CCCCCC#N,155 mg/kg
26,Cc1ccc(S(=O)(=O)NN)cc1,283 mg/kg

row,SMILES,LD50
1,CC(N)C12CC3CC(CC(C3)C1)C2 (stereo unspecified),640 mg/kg
2,ClC(Cl)c1cccc(Oc2ccccc2)c1,6000 mg/kg
3,O=[N+]([O-])C(Br)(Br)CO,29.1 mg/kg
4,NS(=O)(=O)c1cc2c(cc1Cl)NC(CC1CCCC1)NS2(=O)=O (stereo unspecified),1000 mg/kg
5,CC[N+](CC)(CCNC(=O)C(=O)NCC[N+](CC)(CC)Cc1ccccc1Cl)Cc1ccccc1Cl,18.5 mg/kg
6,CC(C(=O)O)c1ccc(Oc2nccs2)cc1 (stereo unspecified),135 mg/kg
7,O=C(Cl)C(Br)CBr (stereo unspecified),1200 mg/kg
8,C=C(OP(=O)(OCC)OCC)c1ccc(Cl)cc1Cl,1530 mg/kg
9,O=C1NN=C(c2ccccc2)CO1,441 mg/kg
10,CN(C)CCN1C(=O)c2ccccc2N(C)c2ccccc21,220 mg/kg
11,NCCCCCCNCCCCCCN,450 mg/kg
12,C=CCc1ccc(OC(=O)NC)c(OC)c1,250 mg/kg
13,CC(Oc1ccc(Oc2ccc(Cl)cc2)cc1)C(=O)O (stereo unspecified),1200 mg/kg
14,CN1CCN(N=O)CC1,100 mg/kg
15,Cc1cc(=O)[nH]c(=S)[nH]1,1500 mg/kg
16,CC(C)(C)c1cc([N+](=O)[O-])cc(C(C)(C)C)c1O,250 mg/kg
17,O=C1CCC(=O)N1c1cc(Cl)cc(Cl)c1,890 mg/kg
18,NC(CCC(=O)O)C(=O)O (racemic),10000 mg/kg
19,CCC#N,39 mg/kg
20,C=CC(OC(C)=O)OC(C)=O,35 mg/kg
21,CC(Oc1ccc(Oc2ccc(Cl)cc2Cl)cc1)C(=O)O (stereo unspecified),563 mg/kg
22,O=c1c(F)cn(C2CCCO2)c(=O)n1C1CCCO1 (stereo unspecified),1730 mg/kg
23,O=[N+]([O-])c1ccc(O)c(CNCCO)c1,23 mg/kg
24,CCN(CC)CCOC(=O)c1cccnc1,8400 mg/kg
25,CN(CCCl)c1ccc(C=CC2=[N+](C)c3ccccc3C2(C)C)cc1,2260 mg/kg
26,CCN(CC)CCOC(=O)c1ccc(NCc2c(CO)cnc(C)c2O)cc1,5900 mg/kg

row,SMILES,LD50
1,Cc1cc(Cl)ccc1OC(C)C(=O)N(C)C (stereo unspecified),800 mg/kg
2,CCCCCCCCCCCCCC[N+](C)(C)C,3900 mg/kg
3,CC(C)CC(=O)OCCc1ccccc1,6220 mg/kg
4,C=C(Cl)C(=O)Nc1ccc(OC)cc1,82 mg/kg
5,CC1(S(=O)(=O)O)CC(=O)c2ccccc2C1=O (stereo unspecified),4510 mg/kg
6,CCOP(=O)(OCC)Oc1ccc(Cl)cc1Cl,100 mg/kg
7,CCOc1ccccc1N1CCN(CCC=Cc2ccc3[nH]c(=O)ccc3c2)CC1,500 mg/kg
8,CN,1600 mg/kg
9,Fc1cc(Cl)c2nc(C(F)(F)F)[nH]c2c1,1.98 mg/kg
10,Nc1ccc([N+](=O)[O-])c(N)c1,4500 mg/kg
11,CCCCCC(C)NC (stereo unspecified),320 mg/kg
12,S=c1[nH]c2cc(Cl)ccc2o1,1000 mg/kg
13,COC(=O)C1CCc2cc(C3CCCCC3)ccc21 (stereo unspecified),410 mg/kg and 254 mg/kg
14,N#Cc1cccc(C#N)c1,860 mg/kg
15,CC[C@H]1CCCC(O[C@H]2CC[C@H](N(C)C)[C@@H](C)O2)[C@@H](C)C(=O)C2=C[C@@H]3[C@@H](C=C[C@@H]4C[C@@H](O[C@@H]5O[C@@H](C)[C@H](OC)[C@@H](OC)[C@H]5OC)C[C@@H]34)[C@@H]2CC(=O)O1 (stereo partly specified),3740 mg/kg
16,CCCCOC(=O)CC(CC(=O)OCCCC)(OC(C)=O)C(=O)OCCCC,31400 mg/kg
17,FC(F)(F)c1nc2c(I)cc(Cl)cc2[nH]1,24 mg/kg
18,OC/C=C/Cl,102 mg/kg
19,Cc1ccc(C#N)cc1,3800 mg/kg
20,O=C(O)c1cc(Oc2ccc(C(F)(F)F)cc2Cl)ccc1[N+](=O)[O-],1370 mg/kg
21,OCC(F)(F)C(F)(F)C(F)(F)CO,1780 mg/kg
22,CCCCCCCCCOC(=O)C1=CNC=C(C(=O)NC2CCCC2)C1c1ccccc1[N+](=O)[O-] (stereo unspecified),10 mg/kg
23,CN(C)CCCn1c2c(c3ccccc31)CCCCCC2,775 mg/kg
24,CCCCCCCCCCCCCCCCOP(=O)([O-])OCC[N+](C)(C)C,246 mg/kg
25,CC(C)C(=O)OC1CCC(N2CCCCC2)CC1 (stereo unspecified),3150 mg/kg
26,Cc1ccccc1-c1nnc(NN)s1,120 mg/kg

row,SMILES,LD50
1,CN1[C@@H]2CC[C@H]1C[C@@H](OC1c3ccccc3CCc3ccccc31)C2,445 mg/kg
2,CCCC(Cn1cncn1)c1ccc(Cl)cc1Cl (stereo unspecified),2120 mg/kg
3,CC1OC1C (stereo unspecified),2150 mg/kg
4,CCCCCCCCCCCCCCCN,660 mg/kg
5,COc1ccc(C(=C(c2ccccc2)[N+](=O)[O-])c2ccc(OCCN3CCCC3)cc2)cc1,1780 mg/kg
6,CN(CCO)Cc1cc(C(=O)c2cccs2)cc(C(C)(C)C)c1O,1000 mg/kg
7,CC(=O)C(C)=Cc1ccccc1,4100 mg/kg
8,C=C(CCC)C1C(C=C(C)C)C1(C)C (stereo unspecified),2600 mg/kg
9,O=C1C(CCS(=O)c2ccccc2)C(=O)N(c2ccccc2)N1c1ccccc1 (stereo unspecified),358 mg/kg
10,FC(F)(F)c1nc2c(Cl)c(Br)c(Cl)c(Br)c2[nH]1,3.43 mg/kg
11,CCOC(C1=NCC(CC)(CC)CN1)c1cccc(Cl)c1 (stereo unspecified),110 mg/kg
12,CCC(Cl)(Cl)Cl,7460 mg/kg
13,CCC=CC=CC=O,1150 mg/kg
14,COc1ccc2c(c1)N(CCC1CCCCN1C)c1ccccc1S2 (stereo unspecified),1130 mg/kg
15,CCC(C)OC(C[n+]1ccccc1)c1cccc(Cl)c1 (stereo unspecified),250 mg/kg
16,CCCCc1c(OC(=O)c2ccc3c(c2)OCO3)n(-c2ccccc2)n(-c2ccccc2)c1=O,1370 mg/kg
17,Nc1c2c(nc3ccccc13)CCCC2,70 mg/kg
18,C=C(CO)C(=O)OCC,620 mg/kg
19,N#Cc1cccnc1,1180 mg/kg
20,CCCCCCCCCCCC(=O)O,12000 mg/kg
21,COCCOC(=O)CC#N,4300 mg/kg
22,S=P(N1CC1)(N1CC1)N1CC1,23 mg/kg
23,CCCN=C(C(OC)c1ccccc1)N1CCCCCC1 (stereo unspecified),55 mg/kg
24,N#CCCC[Si](Cl)(Cl)Cl,2830 mg/kg
25,CCOP(=S)(OCC)SC1OCCOC1SP(=S)(OCC)OCC (stereo unspecified),20 mg/kg
26,CSC(C)(C)C=NOC(=O)N(C)SN1CCOCC1,1.2 mg/kg

row,SMILES,LD50
1,O=C(Nc1ccc(Cl)cc1)c1cc(Cl)cc(-c2ccc(Cl)cc2)c1O,2810 mg/kg
2,CCCC(=O)OC(=C(Cl)Cl)P(=O)(OC)OC,1100 mg/kg
3,CCO[Si](CNCCCCCCN)(OCC)OCC,500 mg/kg
4,CC1CC(Cl)CCC1C(=O)OC(C)(C)C (stereo unspecified),4560 mg/kg
5,O=C(OC1CCC(N2CCCCC2)CC1)C1CCCCC1 (stereo unspecified),2500 mg/kg
6,CCCSP(=O)(OCC)Oc1c(Cl)cc(Cl)cc1Cl (stereo unspecified),151 mg/kg
7,COc1ccc2[nH]c(S(=O)Cc3ncc(C)c(OC)c3C)nc2c1 (stereo unspecified),2210 mg/kg
8,OC1CC2CC1C1CC3OC3C21 (stereo unspecified),3130 mg/kg
9,CN=C(O)Oc1cccc2c1OC(C)C2 (stereo unspecified),43 mg/kg
10,COc1ccc2c(c1)C(N1CCN(C)CC1)=Cc1ccccc1O2,822 mg/kg
11,CCCOc1ccc(C=CC(=S)OCC)cc1OC,1010 mg/kg
12,Cc1ccsc1/C=C/C1=NCCCN1C,926 mg/kg
13,O=C1O[C@@H]2[C@@H](O)[C@H](O)O[C@@H]2[C@H]1O,10700 mg/kg
14,NCCNCCNCCN,2500 mg/kg and 2280 mg/kg
15,OCC1CCC(CO)CC1 (stereo unspecified),3200 mg/kg
16,O=C1CN=C(c2ccccn2)c2cc(Br)ccc2N1,1950 mg/kg
17,CCc1c(C)nc2ccccn2c1=O,1000 mg/kg
18,Cc1ccc(S(=O)(=O)N(C)N=O)cc1,2700 mg/kg
19,CCOP(=O)(OCC)SCN1C(=O)c2ccccc2C1=O,11 mg/kg
20,CNC(=O)Oc1cc(C(C)C)c(OC(=O)NC)cc1C,60 mg/kg
21,C=CC1OCC(C)O1 (stereo unspecified),890 mg/kg
22,CN1CCCN(C)C1=O,1770 mg/kg
23,C#CCOC(=O)CCCCC(=O)OCC#C,200 mg/kg
24,C=C(C)C1CC=C(C)C(O)C1 (stereo unspecified),3000 mg/kg
25,OC[P+](CO)(CO)CO,232 mg/kg
26,OC(CN1CCCCC1)c1cc(-c2ccccc2)on1 (stereo unspecified),1980 mg/kg

row,SMILES,LD50
1,Fc1ccc(Br)cc1,2700 mg/kg
2,CCC(CCN(CC=C(C)C)CC=C(C)C)(C(N)=O)c1cccc2ccccc12 (stereo unspecified),283 mg/kg
3,O=S(=O)(Cl)CCCl,240 mg/kg
4,Cc1cc(OCCO)cc(C)c1Cl,3800 mg/kg
5,CC(C)=CCC(CCN1CCOCC1)(C(N)=O)c1cccc2ccccc12 (stereo unspecified),177 mg/kg
6,C#CCOP(=O)(OCC(C)C)c1ccccc1 (stereo unspecified),600 mg/kg
7,O=C1NCC2(CCN(CCc3ccccc3)CC2)O1,980 mg/kg and 437 mg/kg
8,C[N+](C)(C)CCCCCCCCCC[N+](C)(C)C,85 mg/kg
9,CCC(CC)(C(=O)O)c1cccc2ccccc12,1080 mg/kg
10,CC(N)=S,301 mg/kg
11,COC(=O)C(=O)C(O)=C(O)OC,8000 mg/kg
12,CN1Cc2c(N)cccc2C(c2ccccc2)C1 (stereo unspecified),267 mg/kg and 430 mg/kg
13,CC(=O)OC1c2c(ccc3ccc(=O)oc23)OC(C)(C)C1OC(=O)C=C(C)C (stereo unspecified),832 mg/kg
14,CCCCN1C(=O)c2ccc([N+](=O)[O-])cc2C1=O,1340 mg/kg
15,CCCCCCC(=O)OCCOCCOCCOCCOC(=O)CCCCCC,25000 mg/kg
16,CCOC(C1=NCC(C)(C)CN1)c1ccc(OC)c(F)c1 (stereo unspecified),320 mg/kg
17,FC(F)(F)c1nc2c(Br)ccc(Br)c2[nH]1,18 mg/kg
18,CP(C)(=O)CN1C(=O)CN=C(c2ccccc2)c2cc(Cl)ccc21,3110 mg/kg
19,O=S1(=O)CCN(c2ccccc2)CC1,800 mg/kg
20,C=C(C)C(=O)CC,419 mg/kg
21,Cc1ccccc1C#N,3200 mg/kg
